Source: paper PMC3265452 (PLoS Neglected Tropical Diseases, 2012)

What follows are compounds tested against AaDOP2 (Aedes aegypti, UniProt H6D5H2) (assay: AaDOP2 antagonist screen of the LOPAC1280 library (HEK-CRELuc-Aadop2 cells, luminescence)). Details: not given.
Type: cell-based

AaDOP2, sequence (H6D5H2 1-476): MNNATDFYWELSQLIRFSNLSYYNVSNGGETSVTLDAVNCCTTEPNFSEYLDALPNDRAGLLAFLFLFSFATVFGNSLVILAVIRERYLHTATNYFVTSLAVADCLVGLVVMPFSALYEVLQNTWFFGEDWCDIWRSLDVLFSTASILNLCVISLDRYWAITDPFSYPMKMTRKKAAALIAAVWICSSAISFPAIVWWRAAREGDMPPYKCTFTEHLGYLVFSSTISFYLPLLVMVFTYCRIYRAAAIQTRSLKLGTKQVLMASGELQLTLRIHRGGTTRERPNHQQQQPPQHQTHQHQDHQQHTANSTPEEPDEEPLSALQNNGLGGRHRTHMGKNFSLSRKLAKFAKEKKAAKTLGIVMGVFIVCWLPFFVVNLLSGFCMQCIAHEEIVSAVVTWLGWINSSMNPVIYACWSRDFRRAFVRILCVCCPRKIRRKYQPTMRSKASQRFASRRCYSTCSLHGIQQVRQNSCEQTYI

| SMILES | Compound effect (percent receptor signaling in presence of test compound, relative lux units relative to the SCH23390 control) |
| --- | --- |
| COc1ccc2c(c1)c(CC(=O)O)c(C)n2Cc1ccc(Cl)cc1 [Compound 232, 1-(4-Chlorobenzyl)-5-methoxy-2-methylindole-3-acetic acid] | 77 |
| C[N+](C)(C)CCO.[Br-] [Compound 234, Choline bromide] | 89 |
| NC(=O)c1cc(N2CC2)c([N+](=O)[O-])cc1[N+](=O)[O-] [Compound 236, CB 1954] | 81 |
| C[C@]12C[C@H](O)[C@H]3[C@@H](CCC4=CC(=O)CC[C@@]43C)[C@@H]1CC[C@@H]2C(=O)CO [Compound 238, Corticosterone] | 87 |
| N.N.O=C([O-])C1(C(=O)[O-])CCC1.[Pt+2] [Compound 239, Carboplatin] | 83 |
| COc1ccc2c(c[n+](C)c3c4cc5c(cc4ccc23)OCO5)c1OC [Compound 241, Chelerythrine chloride] | 112 |
| Clc1ccc(C(c2ccccc2Cl)C(Cl)Cl)cc1 (centres unmarked) [Compound 242, 1-(2-Chlorophenyl)-1-(4-chlorophenyl)-2,2-dichloroethane] | 108 |
| CC(=O)OCC(=O)[C@@]1(O)CC[C@H]2[C@@H]3CCC4=CC(=O)CC[C@]4(C)[C@H]3C(=O)C[C@@]21C [Compound 244, Cortisone 21-acetate] | 110 |
| CCn1cnc2c(Nc3cccc(Cl)c3)nc(N[C@@H]3CCCC[C@@H]3N)nc21.Cl [Compound 246, CGP-74514A hydrochloride] | 99 |
| CC(=O)O[C@]1(C(C)=O)CC[C@H]2[C@@H]3C=C(Cl)C4=CC(=O)[C@@H]5C[C@@H]5[C@]4(C)[C@H]3CC[C@@]21C [Compound 247, Cyproterone acetate] | 115 |
| N[C@@H]1CON=C1O [Compound 250, D-Cycloserine] | 91 |
| Clc1ccc(C(c2ccc(Cl)cc2)n2cc[n+](CC(OCc3ccc(Cl)cc3Cl)c3ccc(Cl)cc3Cl)c2)cc1 (centres unmarked) [Compound 252, Calmidazolium chloride] | 44 |
| Cn1cc(C(=O)OCC2CCN(CCNS(C)(=O)=O)CC2)c2ccccc21 [Compound 253, GR 113808] | 97 |
| NC(=O)N1c2ccccc2C=Cc2ccccc21 [Compound 254, Carbamazepine] | 75 |
| C[C@H](CS)C(=O)N1CCC[C@H]1C(=O)O [Compound 255, Captopril] | 112 |
| CCc1cccc(N(C)C(N)=Nc2cccc3ccccc23)c1 [Compound 256, CNS-1102] | 107 |
| C[N+](C)(C)CCOC(N)=O [Compound 257, Carbachol] | 99 |
| N[C@@H](CS(=O)O)C(=O)O [Compound 259, L-Cysteinesulfinic Acid] | 116 |

Same assay, conditions: 10 µM compound, 300 nM dopamine, 2 hr; hit = compound effect <20

| SMILES | Compound effect (percent receptor signaling in presence of test compound, relative lux units relative to the SCH23390 control) [%] |
| --- | --- |
| Cl.Cl.NCCC(=O)NCCc1cnc[nH]1 [Compound 237, Carcinine dihydrochloride] | 95 |
| C[C@]12CCC(=O)C=C1CC[C@@H]1[C@@H]2C(=O)C[C@@]2(C)[C@H]1CC[C@]2(O)C(=O)CO [Compound 240, Cortisone] | 86 |
